For data set [1] the following is noted: DePaoli et al., Diabetes Care 2014; cited from earlier work.
Data set [2] relates to adiponectin. As to the kind of experiment: Example 3 (INT131 activates bone remodeling): 14-day study in healthy subjects. In kind it is in vivo, human. Particulars: 0.1 mg INT131 daily for 14 days. Here is the method: (§1) A study was conducted to determine the effect of INT131 on serum adiponectin levels. Thirty healthy subjects were randomly selected to receive either placebo, 0.1 mg INT131, 1 mg INT131 or 4 mg INT131 daily for 14 days. To measure adiponectin levels blood was drawn at Days 1, 4, 8 and 14.

Data set [3] deals with HbA1c. Particulars: DePaoli et al., Diabetes Care 2014; cited from earlier work.
Data set [4] deals with HbA1c. The data set can be described thus: 24-week study in subjects with type 2 diabetes: HbA1c levels. In kind it is in vivo, human. Particulars: 2 and 3 mg doses of INT131, daily for 24 weeks.
For data set [5], the system named is adiponectin. As to the kind of experiment: 14-day study in healthy subjects: serum adiponectin levels. The data set is classed as in vivo, human. Here is the method: as §1
The subject of data set [6] is diet-induced obese mice. The conditions noted are these: 10 mg/kg of INT131, Lee et al. 2012; cited from earlier work.
Data set [7] has as its system mesenchymal stem cells (MSCs). As to the kind of experiment: differentiation of mesenchymal stem cells into osteoblasts / adipocytes. The conditions noted are these: no method described. The data set is classed as cell-based.
Data set [8] concerns adiponectin. As to the kind of experiment: randomized, double-blind, placebo-controlled, 24-week study in subjects with type 2 diabetes: adiponectin levels. The data set is classed as in vivo, human. Particulars: for Mean Change in adiponectin from baseline (Week 0) to Week 24: LOCF, type 2 diabetes subjects. The procedure: A randomized, double-blind, placebo-controlled, 24-week study was conducted in which adiponectin levels were measured. […] 367 subjects with type 2 diabetes (TD2)—a disease in which patient adiponectin levels are reduced—were randomly assigned to receive either 0.5, 1, 2 or 3 milligrams (“mg”) of INT131 besylate, 45 mg of pioglitazone or placebo daily for 24 weeks. To measure adiponectin levels blood was drawn at Weeks 0, 2, 6, 12 and 24.
At baseline (Week 0) mean adiponectin levels were 1.94 micrograms per milliliter (“μg/mL”). The mean adiponectin levels at baseline and Week 24, and the mean change in adiponectin levels from baseline (Week 0) to Week 24 are disclosed in Table 1, below. The standard deviation for samples tested in each group is listed in (parenthesis). Mean baseline adiponectin values were similar for the treatment groups.

Where [9] appears, read: 0.1 mg INT131 daily for 14 days.

SMILES strings stand for the structures.

In the case of `O=S(=O)(Nc1cc(Cl)c(Oc2cnc3ccccc3c2)c(Cl)c1)c1ccc(Cl)cc1Cl` [INT131], the “edema, weight gain and hemodilution compared with subjects taking pioglitazone” value in data set [1] is reported as “less”. In data set [2], the “change from Day 1 to Day 14 (sentence breaks off)” value is listed as “no significant”. In addition, the “efficacy in reducing HbA1c levels compared with 45 mg of pioglitazone” value in data set [3] is given as “equally efficacious”. In data set [4], the “reduction of HbA1c levels compared with 45 mg of pioglitazone” value is given as “at least as well”. Besides, the “change in adiponectin levels over placebo” value in data set [5] (setting [9]) is recorded as “no significant change”. In addition, the “change in serum adiponectin levels from Day 1 to Day 14” value in data set [5] (setting [9]) is reported as “no significant change”. Further, the “change in serum adiponectin levels over placebo” value in data set [5] (1 mg or 4 mg INT131 daily for 14 days) is reported as “significant change”. Also, the “effect on bone mass” value in data set [6] is given as “does not affect bone mass”. The “differentiation of mesenchymal stem cells (MSCs) into osteoblasts” value in data set [7] is given as “promotes”. Besides, in data set [7], the increase of adipocytes result is on record as “does not result in an increase”. Moreover, the “Mean Change in adiponectin from baseline (Week 0) to Week 24” value in data set [8] (0.5 mg INT131 besylate daily) amounted to 0.56 µg/mL; in data set [8] (1 mg INT131 besylate daily), 1.28 µg/mL; in data set [8] (2 mg INT131 besylate daily), 3.27 µg/mL; in data set [8] (3 mg INT131 besylate daily), 3.83 µg/mL. In data set [8] (1 mg, 2 mg and 3 mg doses of INT131, p≤0.0109), the “treatment comparison with placebo, adiponectin levels” value is on record as “statistically significant”.

For the compound `CCc1ccc(CCOc2ccc(CC3SC(=O)NC3=O)cc2)nc1` (stereo not shown) [pioglitazone, reference compound], the “Mean Change in adiponectin from baseline (Week 0) to Week 24” value in data set [8] (45 mg pioglitazone daily) is 2.96 µg/mL.

(Values after patent US20190167660A1, “PPAR-gamma AGONIST FOR TREATMENT OF BONE DISORDERS” (InteKrin Therapeutics, Inc., priority 2016, published 2019).)
